These results are taken from US20240024262A1, “USE OF VALERIC ACID IN PREPARATION OF DRUG FOR PREVENTING AND TREATING DIABETES” (Harbin Medical University, priority 2022, published 2024).

Where only a bound is given, the exact number is not on record here.

Series [1] concerns High-fat fed C57BL6/J mice. Briefly: High-fat fed C57BL/6J mice, valeric acid gavage: body weight, food intake, blood glucose homeostasis (OGTT). It counts as in vivo. The source says: In an animal experiment of high-fat model mice at a first stage, 6-8-week-old male C57BL/6J mice without specific pathogens (SPF grade) are firstly purchased from Liaoning Changsheng Biotechnology Co., Ltd., Experimental animal feeds are ordered from Beijing keaoxieli Feed Co., Ltd., including a mouse AIN-93M maintenance feed and a high-fat feed with a fat energy supply ratio of 45%; the nutrient compositions of the two feeds are in accordance with a rodent experimental animal feed formula recommended by U.S. Department of agriculture; and the AIN-93M maintenance feed is stored at a room temperature, and the high-fat feed with the energy supply ratio of 45% is stored at the low temperature of −20° C.
The animal experimental research was implemented in accordance with the rules and regulations required by Experimental Animal Management Committee of Harbin Medical University, and animals were raised in a laboratory of Clean Experimental Animal Center of School of Public Health of Harbin Medical University. The laboratory conditions are as follows: a temperature is 21.0 (±1.5) degrees Celsius, a relative humidity is 50 (±5)%, lighting is alternately performed for 12:12 hours by using a fluorescent lamp, the feed is freely taken, and distilled water is freely drunk. After being received, 6-8-week-old C57BL6/J mice as a kind of SPF experimental animals were fed in a single cage, and were arranged to freely drink the distilled water and uptake an animal feed for a week of adaptive feeding. Subsequently, the mice were weighed and randomly divided into 4 experimental groups according to the weights of the mice; and the 4 experimental groups were fed with the AIN-93M maintenance feed and the 45% high-fat feed respectively, and were treated with phosphate buffer salt solution (PBS) and different metabolite solutions by oral gavage. […]
During the feeding period of experimental animals, a scattered food amount and a leftover food amount of mice were weighed with an electronic scale and recorded and fresh feeds were changed every day, and a daily food intake was calculated. […] The weights of the mice were weighed and recorded once a week, and a clean animal bedding subjected to high-pressure disinfection was replaced. […] According to conversion of oral and intravenous doses in Pharmacological Experimental Methodology edited by Shuyun Xu and an equivalent dose ratio of rats and mice, a dose of the valeric acid is finally determined as 75 mg/kg which is approximately equal to ⅛ of a half lethal dose of the valeric acid, meeting a safety range in toxicology. […]

A short description of series [2]: Serum tumor markers CEA and CA19-9 by ECLIA in high-fat fed mice. Format: in vivo. From the text: Finally, to detect whether tumor invasion was caused during intervention or not, contents of a carbohydrate antigen (CA 19-9) and a carcinoembryonic antigen (CEA) in mouse serum were detected and compared by using automatic electrochemiluminescence immunoassay system Cobas® 8000 (Roche, USA) and electrochemiluminescence immunoassay (ECLIA).

Where [3] appears, read: 8 weeks of intervention, HF-V vs HF-PBS control group.

For the compound `CCCCC(=O)O` [valeric acid], in series [1] (setting [3]), the “areas under OGTT-2h blood glucose curves” value was “significantly lower”, the fasting blood glucose entry is given as “significantly lower” and the fasting insulin contents result is listed as “significantly lower”. For the same compound, the weights of mice result in series [1] (valeric acid 75 mg/kg/d gavage (as sodium valerate), vs HF-PBS group, after the sixth week) was “significantly lower”. Further, in series [2] (HF+VA mouse serum), the “CA19-9 in mouse serum” value is under 0.600 U/mL and the “CEA in mouse serum” value is listed as under 0.200 U/mL. The cancer invasion result in series [2] (from CEA and CA19-9 serum markers) is “does not occur”.
